Source: publication PMC6720019 (Pharmaceutical Biology, 2019)

How the values were obtained:
Format in all cases: in vitro ADME
Conditions in all cases: 100 μM KF, pooled HLMs
[1] = biological target: T1, CYP2A6 (Homo sapiens, UniProt P11509); experiment: CYP2A6 inhibition in pooled human liver microsomes (coumarin 7-hydroxylation)
T1 construct: effects of KF on eight major CYP isoforms in human liver microsomes (HLMs); from tissue; host or cells: human liver microsomes
T1 sequence (P11509 1-494): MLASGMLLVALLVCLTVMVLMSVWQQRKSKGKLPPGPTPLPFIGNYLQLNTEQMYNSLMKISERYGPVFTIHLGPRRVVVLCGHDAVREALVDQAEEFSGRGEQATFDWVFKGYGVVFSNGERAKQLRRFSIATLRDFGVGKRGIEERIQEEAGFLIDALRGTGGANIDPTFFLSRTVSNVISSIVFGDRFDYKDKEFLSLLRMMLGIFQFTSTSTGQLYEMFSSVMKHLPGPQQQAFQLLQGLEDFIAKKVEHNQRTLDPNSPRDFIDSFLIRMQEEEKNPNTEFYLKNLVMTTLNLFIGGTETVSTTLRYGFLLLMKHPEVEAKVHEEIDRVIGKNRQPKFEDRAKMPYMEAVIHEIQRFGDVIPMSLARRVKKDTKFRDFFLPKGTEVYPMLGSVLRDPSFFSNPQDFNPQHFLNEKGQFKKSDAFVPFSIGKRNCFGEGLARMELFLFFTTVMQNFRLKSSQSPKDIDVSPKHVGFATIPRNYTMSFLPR
Description: (§1) All incubations were performed in triplicate, and the mean values were utilized. The typical incubation systems contained 100 mM potassium phosphate buffer (pH 7.4), NADPH generating system (1 mM NADP^+, 10 mM glucose-6-phosphate, 1 U/mL of glucose-6-phosphate dehydrogenase, and 4 mM MgCl2), the appropriate concentration of HLM, a corresponding probe substrate and KF (or positive inhibitor for different probe reactions) in a final volume of 200 μL.
(§2) The concentration of KF was 100 μM according literatures (Lang et al. [2016]; Liu et al. [2017]; Zhang et al. [2019]), and the positive inhibitor concentrations were as follows: 10 μM furafylline for CYP1A2, 1 μM ketoconazole for CYP3A4, 10 μM tranylcypromine for CYP2A6, 50 μM clomethiazole for CYP2E1, 10 μM quinidine for CYP2D6, 10 μM sulfaphenazole for CYP2C9, 50 μM tranylcypromine for CYP2C19, 5 μM montelukast for CYP2C8. Probe substrates, positive inhibitors (except for dextromethorphan and quinidine which were dissolved in water) and KF were dissolved in methanol, with a final concentration of 1% (v/v), and 1% neat methanol was added to the incubations without inhibitor. […] The instrument used in this study were Agilent 1260 series instrument with DAD and FLD detector, and the quantitative assay for the corresponding metabolites was performed as previously reported (Lang et al. [2016]; Zhang et al. 2016). […]

[2] = biological target: T2, CYP2D6 (Homo sapiens, UniProt P10635); experiment: CYP2D6 inhibition in pooled human liver microsomes (dextromethorphan O-demethylation)
T2 construct: effects of KF on eight major CYP isoforms in human liver microsomes (HLMs); from tissue; host or cells: human liver microsomes
T2 sequence (P10635 whole entry, canonical isoform): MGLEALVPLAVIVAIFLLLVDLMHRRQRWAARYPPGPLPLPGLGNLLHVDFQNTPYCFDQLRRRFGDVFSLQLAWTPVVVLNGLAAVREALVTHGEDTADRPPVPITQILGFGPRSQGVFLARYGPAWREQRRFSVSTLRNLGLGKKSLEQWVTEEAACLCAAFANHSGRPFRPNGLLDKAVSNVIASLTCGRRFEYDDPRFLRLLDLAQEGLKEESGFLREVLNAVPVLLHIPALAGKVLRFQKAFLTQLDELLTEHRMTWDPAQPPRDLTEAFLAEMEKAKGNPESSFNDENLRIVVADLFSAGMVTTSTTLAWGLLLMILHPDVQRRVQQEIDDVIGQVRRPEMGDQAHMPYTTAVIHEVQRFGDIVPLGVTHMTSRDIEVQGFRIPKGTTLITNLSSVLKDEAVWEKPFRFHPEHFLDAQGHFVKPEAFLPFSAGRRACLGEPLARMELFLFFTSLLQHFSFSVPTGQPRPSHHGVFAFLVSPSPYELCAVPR
Description: as §1, §2

[3] = biological target: T3, CYP2E1 (Homo sapiens, UniProt P05181); experiment: CYP2E1 inhibition in pooled human liver microsomes (chlorzoxazone 6-hydroxylation)
T3 construct: effects of KF on eight major CYP isoforms in human liver microsomes (HLMs); from tissue; host or cells: human liver microsomes
T3 sequence (P05181 whole entry, canonical isoform): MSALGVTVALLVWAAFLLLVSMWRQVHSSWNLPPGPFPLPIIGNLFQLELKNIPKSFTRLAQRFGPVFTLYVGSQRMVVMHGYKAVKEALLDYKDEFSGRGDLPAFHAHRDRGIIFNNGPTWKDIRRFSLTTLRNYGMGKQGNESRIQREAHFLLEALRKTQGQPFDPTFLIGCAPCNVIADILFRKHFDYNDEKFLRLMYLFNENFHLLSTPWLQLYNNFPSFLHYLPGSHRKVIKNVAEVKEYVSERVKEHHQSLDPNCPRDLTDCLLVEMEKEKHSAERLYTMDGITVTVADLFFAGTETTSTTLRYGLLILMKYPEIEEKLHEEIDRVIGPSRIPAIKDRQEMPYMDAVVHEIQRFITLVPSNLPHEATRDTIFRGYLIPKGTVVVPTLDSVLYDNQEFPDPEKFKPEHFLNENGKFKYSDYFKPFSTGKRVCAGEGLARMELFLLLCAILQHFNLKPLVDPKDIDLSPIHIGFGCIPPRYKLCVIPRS
Description: as §1, §2

[4] = biological target: T4, CYP2C19 (Homo sapiens, UniProt P33261); experiment: CYP2C19 inhibition in pooled human liver microsomes (S-mephenytoin 4-hydroxylation)
T4 construct: effects of KF on eight major CYP isoforms in human liver microsomes (HLMs); from tissue; host or cells: human liver microsomes
T4 sequence (P33261 whole entry, canonical isoform): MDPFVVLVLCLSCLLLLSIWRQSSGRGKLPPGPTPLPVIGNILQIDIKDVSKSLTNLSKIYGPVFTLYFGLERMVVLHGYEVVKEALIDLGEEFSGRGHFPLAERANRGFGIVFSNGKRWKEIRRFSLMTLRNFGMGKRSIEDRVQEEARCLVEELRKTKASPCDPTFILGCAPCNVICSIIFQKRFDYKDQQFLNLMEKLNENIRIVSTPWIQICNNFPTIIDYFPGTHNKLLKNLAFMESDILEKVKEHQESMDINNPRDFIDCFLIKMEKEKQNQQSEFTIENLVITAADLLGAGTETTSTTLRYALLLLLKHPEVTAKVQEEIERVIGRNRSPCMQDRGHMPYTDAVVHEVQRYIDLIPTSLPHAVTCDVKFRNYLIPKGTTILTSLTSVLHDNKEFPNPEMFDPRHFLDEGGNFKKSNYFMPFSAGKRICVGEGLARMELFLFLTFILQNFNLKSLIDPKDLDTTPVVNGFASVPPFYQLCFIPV
Description: as §1, §2

[5] = biological target: T5, CYP2C8 (Homo sapiens, UniProt P10632); experiment: CYP2C8 inhibition in pooled human liver microsomes (paclitaxel 6α-hydroxylation)
T5 construct: effects of KF on eight major CYP isoforms in human liver microsomes (HLMs); from tissue; host or cells: human liver microsomes
T5 sequence (P10632 1-490): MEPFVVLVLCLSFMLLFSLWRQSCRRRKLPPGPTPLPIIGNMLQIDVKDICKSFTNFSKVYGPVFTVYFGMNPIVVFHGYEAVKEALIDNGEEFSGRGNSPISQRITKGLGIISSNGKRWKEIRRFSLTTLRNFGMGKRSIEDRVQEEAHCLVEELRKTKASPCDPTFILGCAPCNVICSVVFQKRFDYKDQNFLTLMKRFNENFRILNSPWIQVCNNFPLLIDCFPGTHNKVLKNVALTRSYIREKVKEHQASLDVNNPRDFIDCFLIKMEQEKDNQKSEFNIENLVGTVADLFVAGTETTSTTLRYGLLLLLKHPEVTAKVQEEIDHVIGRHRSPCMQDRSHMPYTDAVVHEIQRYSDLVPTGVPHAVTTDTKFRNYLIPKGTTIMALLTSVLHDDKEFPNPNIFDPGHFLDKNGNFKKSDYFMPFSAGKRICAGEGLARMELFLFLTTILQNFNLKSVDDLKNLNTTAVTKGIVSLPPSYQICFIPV
Description: as §1, §2

C[C@@H]1O[C@@H](Oc2cc(O)c3c(=O)c(O[C@@H]4O[C@@H](C)[C@H](O)[C@@H](O)[C@H]4O)c(-c4ccc(O)cc4)oc3c2)[C@H](O)[C@H](O)[C@H]1O [KF, Kaempferitrin]
did not inhibit: Inhibition of CYP2A6 activity [1] | Inhibition of CYP2D6 activity [2] | Inhibition of CYP2E1 activity [3] | Inhibition of CYP2C19 activity [4] | Inhibition of CYP2C8 activity [5]
